Data as given in ChEMBL document CHEMBL1149577, “Rational design of 7-arylquinolines as non-competitive metabotropic glutamate receptor subtype 5 antagonists” (Bioorg Med Chem Lett, 2007).

molecular target: T1, Metabotropic glutamate receptor 5 (Rattus norvegicus, UniProt P31424); assay: Activity at rat mGlu5 receptor expressed in CHO cells assessed as inhibition of quisqualate-stimulated calcium mobilization by FLIPR assay; format: functional, cell-based
T1 sequence (P31424 whole entry): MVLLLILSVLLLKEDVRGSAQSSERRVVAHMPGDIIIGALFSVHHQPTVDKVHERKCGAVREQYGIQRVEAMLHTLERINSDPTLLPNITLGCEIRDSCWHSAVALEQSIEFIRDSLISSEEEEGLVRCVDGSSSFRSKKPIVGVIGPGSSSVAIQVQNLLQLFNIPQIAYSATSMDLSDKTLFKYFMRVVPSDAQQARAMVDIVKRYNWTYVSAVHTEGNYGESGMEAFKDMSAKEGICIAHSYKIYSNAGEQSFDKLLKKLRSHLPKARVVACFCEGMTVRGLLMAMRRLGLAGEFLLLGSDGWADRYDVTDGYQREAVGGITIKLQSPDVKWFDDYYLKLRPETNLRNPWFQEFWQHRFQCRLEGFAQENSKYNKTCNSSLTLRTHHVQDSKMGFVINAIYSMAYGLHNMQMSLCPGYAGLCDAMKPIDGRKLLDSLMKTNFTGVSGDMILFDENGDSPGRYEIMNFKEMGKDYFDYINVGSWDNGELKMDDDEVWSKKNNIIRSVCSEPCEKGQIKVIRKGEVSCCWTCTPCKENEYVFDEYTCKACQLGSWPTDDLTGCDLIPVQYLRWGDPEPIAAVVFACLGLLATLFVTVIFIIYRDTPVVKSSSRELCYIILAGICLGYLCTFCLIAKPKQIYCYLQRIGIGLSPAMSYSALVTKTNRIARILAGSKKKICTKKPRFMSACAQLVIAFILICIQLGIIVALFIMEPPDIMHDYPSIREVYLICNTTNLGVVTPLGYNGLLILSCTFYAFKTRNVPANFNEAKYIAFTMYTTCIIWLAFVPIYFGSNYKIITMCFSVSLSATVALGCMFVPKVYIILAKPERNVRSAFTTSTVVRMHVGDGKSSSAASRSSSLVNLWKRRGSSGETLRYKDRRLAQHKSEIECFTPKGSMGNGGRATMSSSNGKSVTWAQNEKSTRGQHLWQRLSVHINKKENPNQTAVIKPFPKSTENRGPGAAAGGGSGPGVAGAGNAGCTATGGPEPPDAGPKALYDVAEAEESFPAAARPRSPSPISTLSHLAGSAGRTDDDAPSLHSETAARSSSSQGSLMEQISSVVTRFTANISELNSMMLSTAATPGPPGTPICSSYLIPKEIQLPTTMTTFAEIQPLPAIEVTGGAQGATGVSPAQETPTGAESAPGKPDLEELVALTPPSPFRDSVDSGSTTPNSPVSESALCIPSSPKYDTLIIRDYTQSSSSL

IC50 [µM] | SMILES
0.86 | COc1cccc(-c2ccc3ccc(C)nc3c2)c1
0.43 | Cc1ccc2ccc(-c3cccc(CC#N)c3)cc2n1
4.2 | COc1ccccc1-c1ccc2ccc(C)nc2c1
0.013 | Cc1ccc2ccc(-c3cc(Br)cc(C#N)c3)cc2n1
14 | Cc1ccc2ccc(-c3cccc(Cl)c3)cc2n1
1.8 | Cc1ccc2ccc(-c3cccc(F)c3)cc2n1
> 10 | Cc1ccc2ccc(-c3ccc(C#N)cc3)cc2n1
0.0016 | Cc1cc(C#N)cc(-c2ccc3ccc(C)nc3c2)c1
0.0008 | Cc1ccc2ccc(-c3cc(F)cc(C#N)c3)cc2n1
0.002 | COCc1cc(C#N)cc(-c2ccc3ccc(C)nc3c2)c1
0.31 | Cc1ccc2ccc(-c3cc(C#N)cc(OC(C)C)c3)cc2n1
8.7 | Cc1ccc2ccc(-c3cccc(CO)c3)cc2n1
> 10 | Cc1ccc2ccc(-c3cccc(C(N)=O)c3)cc2n1
0.072 | CCSc1cc(C#N)cc(-c2ccc3ccc(C)nc3c2)c1
> 10 | Cc1ccc2ccc(-c3cccc(C(F)(F)F)c3)cc2n1
1.09 | CCS(=O)(=O)c1cc(C#N)cc(-c2ccc3ccc(C)nc3c2)c1
0.082 | COCCOc1cc(C#N)cc(-c2ccc3ccc(C)nc3c2)c1
0.0014 | Cc1ccc2ccc(-c3cc(Cl)cc(C#N)c3)cc2n1

IC50 [µM] | SMILES
9 | Cc1ccc2ccc(-c3ccccc3)cc2n1
0.0077 | Cc1ccc2ccc(-c3cccc(C#N)c3)cc2n1
0.0024 | COc1cc(C#N)cc(-c2ccc3ccc(C)nc3c2)c1
0.017 | CCOc1cc(C#N)cc(-c2ccc3ccc(C)nc3c2)c1
0.023 | Cc1ccc2ccc(-c3cncc(C#N)c3)cc2n1
19 | Cc1ccc2ccc(-c3cccc(O)c3)cc2n1
12 | Cc1ccc2ccc(-c3cc(C#N)cc(OCC(C)C)c3)cc2n1
0.075 | Cc1ccc2ccc(-c3cc(C#N)cc(OC(F)(F)F)c3)cc2n1
5.8 | COCc1cccc(-c2ccc3ccc(C)nc3c2)c1
9.8 | Cc1ccc2ccc(-c3ccccc3C#N)cc2n1
0.51 | Cc1ccc2ccc(-c3cccnc3)cc2n1
0.002 | Cc1ccc2ccc(-c3cc(C#N)cc(C#N)c3)cc2n1
16 | COc1ccc(-c2ccc3ccc(C)nc3c2)cc1
0.36 | Cc1ccc2ccc(-c3cc(O)cc(C#N)c3)cc2n1
> 10 | Cc1ccc2ccc(-c3cccc(OC(F)(F)F)c3)cc2n1
3.4 | Cc1cccc(-c2ccc3ccc(C)nc3c2)c1
4.76 | CC(=O)c1cccc(-c2ccc3ccc(C)nc3c2)c1

molecular target: T1, Metabotropic glutamate receptor 5; assay: Displacement of [3H]MPEP from mGlu5 receptor in rat brain; format: tissue-based

Ki [µM] | SMILES
0.022 | Cc1ccc2ccc(-c3cc(F)cc(C#N)c3)cc2n1
0.072 | Cc1ccc2ccc(-c3cccc(C#N)c3)cc2n1

tested on: Rattus norvegicus; assay: Anxiolytic activity in thirsty naive rat assessed as shock episodes at 10 mg/kg, po by Vogel assay relative to control; format: functional

SMILES | Activity [%]
Cc1ccc2ccc(-c3cc(F)cc(C#N)c3)cc2n1 | 100
Cc1cccc(C#Cc2ccccc2)n1 | 80
